From patent US6482934B1, “Methods and compositions for detecting and treating kidney diseases associated with adhesion of crystals to kidney cells” (ARCH Development Corp., priority 1995, dated 2002)
“Also recorded” adds a separate entry of the source. Where a name gives a salt, the structure may show the parent alone. Read-outs that look alike come from different tables or passages of the source.

Tests used:
BSC-1 cells [1] = test: [14C]COM crystal adhesion to BSC-1 cell monolayers; assay type: cell-based, African green monkey; details: for IC50 / Half-maximal concentration: concentration that inhibited crystal adhesion by 50%; for IC50 / Kd / Half-maximal concentration / Langmuir affinity constant (dissociation constant): N.I. = noninhibitory; for IC50: read-out: Half-maximal concentration; for Kd / Langmuir affinity constant (dissociation constant): slope of Langmuir isotherm plot of crystal adhesion; for Kd: read-out: Langmuir affinity constant (dissociation constant); for effect on adhesion of COM crystals: concentrations as high as 1 μM
Description: (§1) Renal epithelial cells of the nontransformed African green monkey line (BSC-1) were used. Cells were grown in Dulbecco-Vogt modified Eagle's medium containing 25 mM glucose (DMEM), 1.6 μM biotin and 1% calf serum at 38° C. in a CO2 incubator. Under these conditions, BSC-1 cells achieved confluence at 10^6 cells per 60-mm plastic dish (Nunc). High-density, quiescent cultures were prepared by plating 2×10^6 cells in a 60-mm dish. The spent medium was changed after 3 days so that there were 3-4×10^6 cells/dish 6 days later. Medium was then aspirated and replaced with fresh medium containing […] and 0.01% calf serum; 3 days later the quiescent cultures were used for study.
Crystals are sterilized by heating to 180° C. overnight.
High-density, quiescent cultures of BSC-1 cells, MDCK cells, or Balb/c3T3 fibroblasts are prepared. At the time of assay, the medium is aspirated and replaced with 5 ml of phosphate-buffered saline (PBS) (10 mM Na2PO4, 155 mM NaCl, 5.4 mM KCl, pH 7.4 at 37° C.) to which the compound under investigation is added. […] The culture dishes are gently agitated for 5 seconds to uniformly distribute crystals which subsequently settle to the surface of the cell monolayer under the force of gravity. After two minutes buffer is aspirated and the cells are then washed three times with PBS (5 ml). The cell monolayer is then scraped directly into a scintillation vial containing 6 N HCl (0.5 ml) to which 4.5 ml of Ecoscint (National Diagnostics, E. Palmetto, Fla.) is added, and the amount of radioactivity is measured as described by Riese, et al. (1992).

BSC-1 cells [2] = test: Adhesion of agent-coated COM crystals to BSC-1 cells; assay type: cell-based, African green monkey; details: compared with uncoated control crystals
Description: Each tube is then centrifuged at 3000 g for 5 minutes. The supernatant is gently aspirated and replaced with a supersaturated calcium oxalate solution to resuspend the coated crystals. To assure removal of any nonabsorbed compound, crystals are resuspended and washed three times in succession. Cell-associated radioactivity is determined 2 minutes after addition of these coated crystals as described herein.

BSC-1 cells [3] = test: Crystal endocytosis by BSC-1 cells; assay type: cell-based, African green monkey; details: for combined stimulatory effects on COM crystal endocytosis: ADP 200 μM and EGF 5 ng/ml
Description: as §1
(§2) At specified times after addition of crystals to high-density, quiescent cultures the medium was aspirated and a solution of crystalline trypsin was used to detach cells which were then inspected under a polarizing microscope. One hundred cells from each culture were counted, and each cell was scored for the presence of one or more internalized crystal(s).

MDCK cells = test: Crystal endocytosis by MDCK cells; assay type: cell-based, canine; details: 10 μg/ml; COM crystals 200 μg/ml
Description: Madin-Darby Canine Kidney (MDCK) cells were grown in DMEM containing 2% calf serum and 1.6 μM biotin as described previously. To prepare high-density, quiescent cultures 2×10^6 cells/60-mm dish were plated in DMEM containing 2% calf serum and 1.6 μM biotin. The next day medium was aspirated and replaced with fresh medium containing 0.5% calf serum and biotin. One day later the cultures were used for study.
as §2

Balb/c3T3 fibroblasts = test: Crystal endocytosis by Balb/c3T3 fibroblasts; assay type: cell-based; details: 10 μg/ml; COM crystals 200 μg/ml
Description: Balb/c3T3 fibroblasts were grown in DMEM containing 10% calf serum. To prepare high-density, quiescent cultures, 7×10^5 cells were plated per 60-mm dish. Two days later the medium was aspirated and replaced with fresh medium containing 1% calf serum and 1.6 μM biotin; the cells were used one day later when a density of […] was reached.
as §2

| Molecule | effect on adhesion of COM crystals to BSC-1 cells (in words) (BSC-1 cells [1]) | concentration above which COM crystal adhesion was inhibited (BSC-1 cells [1]) | IC50 (BSC-1 cells [1]) | Kd (BSC-1 cells [1]) | adhesion of crystals previously coated with the molecule (BSC-1 cells [2]) | other results |
| --- | --- | --- | --- | --- | --- | --- |
| CC(=O)NC1C(O)OC(CO)C(OS(=O)(=O)O)C1OC1OC(C(=O)O)=CC(O)C1O (stereo not shown) [4-S] | without effect |  |  |  |  |  |
| CC(=O)NC1C(O)OC(CO)C(O)C1OC1OC(C(=O)O)=CC(O)C1O (stereo not shown) [0-S] | without effect |  |  |  |  |  |
| Pentosan polysulfate |  | above 0.33 μM | 20 nM | 131 nM |  |  |
| Chondroitin sulfate A | prevented binding of COM crystals | above 1.4 μM | 600 nM | 38 nM |  |  |
| Polylysine |  |  | 2500 nM |  | to the same extent as did uncoated crystals | effect on adhesion of COM crystals (BSC-1 cells [1]): no effect |
| EGF: epidermal growth factor, mitogen |  |  |  |  |  | combined stimulatory effects on COM crystal endocytosis (BSC-1 cells [3]): not additive; increase in COM crystal endocytosis compared to control (BSC-1 cells [3]; EGF 10 ng/ml): 55% |
| Chondroitin sulfate B | prevented binding of COM crystals | > 0.4 µM | 100 nM | 206 nM | less than control |  |
| protamine sulfate |  |  |  |  |  | effect on heparin inhibition of crystal binding, added after heparin (BSC-1 cells [1]; after 30 minutes exposure to heparin): completely reversed inhibition of crystal binding; effect on heparin inhibition of crystal adhesion, added together with heparin (BSC-1 cells [1]; protamine sulfate 100 μg/ml with heparin 10 μg/ml): abolished the polyanion's inhibitory effect; effect on crystal adhesion, alone (BSC-1 cells [1]; protamine sulfate alone): inert |
| albumin |  |  |  |  | to the same extent as did uncoated crystals |  |
| O=C(O)CC(CC(=O)O)(OP(=O)(O)O)C(=O)O [Phosphocitrate] |  | above 50 μM | 50000 nM | 43800 nM |  |  |
| Polyarginine |  |  |  |  | to the same extent as did uncoated crystals | Half-maximal concentration (BSC-1 cells [1]): N.I.; effect on adhesion of COM crystals (BSC-1 cells [1]): no effect; Langmuir affinity constant (dissociation constant) (BSC-1 cells [1]): N.I. |
| Polyvinyl sulfate |  | > 0.1 µM | 20 nM | 49 nM |  |  |
| Polyglutamic acid | blocked adherence of COM crystals | > 0.02 µM | 10 nM | 26 nM | less than control |  |
| Hyaluronic acid | prevented binding of COM crystals | above 0.01 μM | 20 nM | 13 nM |  |  |
| O=C(O)CC(O)(CC(=O)O)C(=O)O [Sodium citrate] | inhibited binding of COM crystals | above 250 μM |  | 431000 nM |  | IC50 (BSC-1 cells [1]; Chlorocebus sabaeus, BSC-1): 200000 nM |
| Chondroitin sulfate C |  |  |  |  |  | Half-maximal concentration (BSC-1 cells [1]): N.I.; effect on COM crystal adherence (BSC-1 cells [1]; concentrations as high as 37 μM): no effect; Langmuir affinity constant (dissociation constant) (BSC-1 cells [1]): N.I. |
| Polyaspartic acid | blocked adherence of COM crystals | above 0.007 μM | 7 nM | 23 nM | less than control |  |
| Fibronectin |  |  |  |  |  | maximal inhibition of COM crystal endocytosis (BSC-1 cells [3]; fibronectin 2.5 μg/ml): 33%; inhibition of COM crystal endocytosis by MDCK cells (MDCK cells): 59%; effect on crystal uptake by fibroblasts (Balb/c3T3 fibroblasts): did not alter crystal uptake by fibroblasts |
| Dextran sulfate |  | > 0.01 µM | 10 nM | 13 nM | less than control |  |
| Heparan sulfate | prevented binding of COM crystals | above 0.8 μM | 100 nM | 881 nM |  | effect on endocytosis of COM crystals (BSC-1 cells [3]; heparan sulfate 2-25 μg/ml): did not alter endocytosis of COM crystals |
| Nc1ncnc2c1ncn2[C@@H]1O[C@H](COP(=O)(O)OP(=O)(O)O)[C@@H](O)[C@H]1O [ADP, adenosine diphosphate] |  |  |  |  |  | increase in COM crystal uptake compared to control (BSC-1 cells [3]; ADP 2 μM): 52%; combined stimulatory effects on COM crystal endocytosis (BSC-1 cells [3]): not additive |
| arginine-glycine-aspartic acid-serine [RGDS] |  |  |  |  |  | inhibition of COM crystal endocytosis compared to control (BSC-1 cells [3]; RGDS 5 μg/ml): 30%; combined inhibitory effects on COM crystal endocytosis (BSC-1 cells [3]; RGDS 10 μg/ml, heparin 5 μg/ml and TGF-β2 2 ng/ml): not additive; maximal inhibition of COM crystal endocytosis (BSC-1 cells [3]; RGDS at higher concentrations (above 5 μg/ml)): 41%; inhibition of COM crystal endocytosis by MDCK cells (MDCK cells): 48%; effect on crystal uptake by fibroblasts (Balb/c3T3 fibroblasts): did not alter crystal uptake by fibroblasts |
| CC(=O)NC1C(O)OC(COS(=O)(=O)O)C(O)C1OC1OC(C(=O)O)=CC(O)C1O (stereo not shown) [6-S] | without effect |  |  |  |  |  |
| Uropontin: urinary glycoprotein, inhibitor of COM crystal growth | inhibited binding of COM crystals; also recorded: blocking adhesion of COM crystals to BSC-1 cells |  | 20 nM | 43 nM | less than control | block of COM crystal binding (BSC-1 cells [1]; uropontin 0.1 μM): 73% |
